Laboratory results reported in ChEMBL document CHEMBL6083245, “Digoxin and its Na+/K+-ATPase-targeted actions on cardiovascular diseases and cancer” (Bioorg Med Chem, 2024).

Assays:
Assay type in all cases: functional, cell-based
HCT-8 = assay: Cytotoxicity against human HCT-8 cells assessed as reduction in cell growth incubated for 72 hrs by MTT assay; conditions: HCT-8, 72 h
HT-29 = assay: Cytotoxicity against human HT-29 cells assessed as reduction in cell growth incubated for 72 hrs by MTT assay; conditions: HT-29, 72 h
SW-620 = assay: Cytotoxicity against human SW620 cells assessed as reduction in cell growth incubated for 72 hrs by MTT assay; conditions: SW-620, 72 h
MDA-MB-231 = assay: Cytotoxicity against human MDA-MB-231 cells assessed as reduction in cell growth incubated for 72 hrs by MTT assay; conditions: MDA-MB-231, 72 h
OVCAR-3 = assay: Cytotoxicity against human OVCAR-3 cells assessed as reduction in cell growth incubated for 72 hrs by MTT assay; conditions: OVCAR-3, 72 h
MDA-MB-435 = assay: Cytotoxicity against human MDA-MB-435 cells assessed as reduction in cell growth incubated for 72 hrs by MTT assay; conditions: MDA-MB-435, 72 h
NCI-H69 = assay: Antiproliferative activity against human NCI-H69 cells assessed as reduction in cell viability incubated for 48 hrs by Cell-titer Glo luminescent assay; conditions: NCI-H69, 48 h
NCI-H82 = assay: Antiproliferative activity against human NCI-H82 cells assessed as reduction in cell viability incubated for 48 hrs by Cell-titer Glo luminescent assay; conditions: NCI-H82, 48 h
[1] = Antiproliferative activity against human NCI-H196 cells assessed as reduction in cell viability incubated for 48 hrs by Cell-titer Glo luminescent assay; conditions: NCI-H196, 48 h
NCI-H1963 = assay: Antiproliferative activity against human NCI-H1963 cells assessed as reduction in cell viability incubated for 48 hrs by Cell-titer Glo luminescent assay; conditions: NCI-H1963, 48 h
NCI-H526 = assay: Antiproliferative activity against human NCI-H526 cells assessed as reduction in cell viability incubated for 48 hrs by Cell-titer Glo luminescent assay; conditions: NCI-H526, 48 h
A549 = assay: Antiproliferative activity against human A549 cells assessed as reduction in cell viability incubated for 48 hrs by Cell-titer Glo luminescent assay; conditions: A549, 48 h
NCI-H1299 = assay: Antiproliferative activity against human NCI-H1299 cells assessed as reduction in cell viability incubated for 48 hrs by Cell-titer Glo luminescent assay; conditions: NCI-H1299, 48 h
[2] = Antiproliferative activity against human NSCLC cells assessed as reduction in cell viability incubated for 48 hrs by Cell-titer Glo luminescent assay
HeLa = assay: Antiproliferative activity against human HeLa cells assessed as reduction in cell viability by MTS assay

- IC50 (NCI-H69): 0.05 µM
- IC50 (NCI-H82): 0.05 µM
- IC50 (NCI-H1963): 0.05 µM
- IC50 (NCI-H526): 0.05 µM
- IC50 (A549): 0.05 µM
- IC50 (NCI-H1299): 0.05 µM
- IC50 (HeLa): 0.0002 µM
Compound: C[C@H]1O[C@@H](O[C@H]2[C@@H](O)C[C@H](O[C@H]3[C@@H](O)C[C@H](O[C@H]4CC[C@@]5(C)[C@H](CC[C@@H]6[C@@H]5C[C@@H](O)[C@]5(C)[C@@H](C7=CC(=O)OC7)CC[C@]65O)C4)O[C@@H]3C)O[C@@H]2C)C[C@H](O)[C@@H]1O [DIGOXIN]
- IC50 (HCT-8): 0.1 µM
- IC50 (HT-29): 0.1 µM
- IC50 (SW-620): 0.1 µM
- IC50 (MDA-MB-231): 0.1 µM
- IC50 (OVCAR-3): 0.1 µM
- IC50 (MDA-MB-435): 0.1 µM
- IC50 [1]: 0.05 µM
- IC50 [2]: 0.05 µM
